These results are taken from US20040028656A1, “Survival of neurons” (University of South Florida, a non-profit institution, priority 1998, published 2004).

The structures appear in SMILES notation.

For this assay, the system named is hNT neurons. The assay is described as follows: Soma size and neurite outgrowth of TH+ hNT cells (image analysis). The class given is cell-based, human. The conditions noted are these: for soma sizes versus control: 5DIV NaCl or KCl-treated cultures; for neurite outgrowth versus control: NaCl and KCl-treated 5DIV. As to the method: The same series of slides immunostained for TH were employed to measure the soma size (μm^2) and neurite outgrowth (μm) of appropriately 50 TH+ cells per representative culture experiment using a computerized image analysis program (Image-Pro Plus, Media Cybernetics, Inc., Silver Springs, Md.) at 20× objective. The results in the morphological assessment study are reported as mean ±SEM and were analyzed using Student's t-test.

As for `[Cl-].[K+]` [KCl], the “soma sizes versus control” value was “not significantly different from control” and the “neurite outgrowth versus control” value is “did not significantly differ from control values”.
For `[Cl-].[Na+]` [NaCl], in that order: “not significantly different from control” and “did not significantly differ from control values”.
